Measurements reported in ChEMBL document CHEMBL1250514, “Fragment-based drug discovery applied to Hsp90. Discovery of two lead series with high ligand efficiency” (J Med Chem, 2010).

target: Heat shock protein HSP90 (Homo sapiens, UniProt P07900+P08238)
Description: Binding affinity to human N-terminal ATPase domain of Hsp90 by isothermal titration calorimetry

Kd [µM] | SMILES
2 | Nc1nc(Cl)cc(-c2ccccc2)n1
0.068 | COc1cccc(OC)c1-c1cc(Cl)nc(N)n1
0.036 | COc1cccc(Cl)c1-c1cc(Cl)nc(N)n1
0.083 | Nc1nc(Cl)cc(-c2ccccc2Cl)n1
0.012 | Nc1nc(Cl)cc(-c2ccc(Cl)cc2Cl)n1
0.048 | COc1ccc(Cl)c(-c2cc(Cl)nc(N)n2)c1
0.0063 | COc1cc(-c2cc(Cl)nc(N)n2)c(Cl)cc1Cl
0.028 | COc1ccc(-c2cc(Cl)nc(N)n2)c(Cl)c1
1130 | CCN(CC)C(=O)c1ccc(O)c(Cl)c1
45 | CCc1cc(C(=O)N(CC)CC)ccc1O
7 | CCN(CC)C(=O)c1ccc(O)c(C(C)C)c1
8.6 | CCN(CC)C(=O)c1ccc(O)c(C(C)(C)C)c1
51 | CCN(CC)C(=O)c1cc(C(C)C)ccc1O
134 | CCN(CC)C(=O)c1cc(C(C)(C)C)ccc1O
2.3 | CC(C)(C)c1cc(C(=O)N2CCC(O)CC2)ccc1O
0.4 | CC(C)c1cc(C(=O)N2CCOCC2)ccc1O
0.011 | CC(C)c1cc(C(=O)N2CCOCC2)c(O)cc1O
2.5 | CC(=O)N1CCN(C(=O)c2ccc(O)c(C(C)(C)C)c2)CC1
0.25 | CC(C)(C)c1cc(C(=O)N2CCN(c3ccccn3)CC2)ccc1O
2.5 | CC(C)(C)c1cc(C(=O)N2CCc3ccccc3C2)ccc1O
0.068 | CC(C)c1cc(C(=O)N2Cc3ccccc3C2)ccc1O
0.128 | CC(C)c1cc(C(=O)N2CCc3ccccc3C2)ccc1O
